Laboratory results taken from PubChem BioAssay (NCI).
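How tested: cells in 96-well plates exposed to compound for 48 hours at five concentrations. TGI: total growth inhibition.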

Assays:
Test in all cases: DTP human tumour cell line panel, 48 h
[1] = system: 786-0 renal
[2] = system: A498 renal
[3] = system: A549 NSCLC
[4] = system: ACHN renal
[5] = system: BT-549 breast
[6] = system: CAKI-1 renal
[7] = system: CCRF-CEM leukemia
[8] = system: COLO 205 colon
[9] = system: EKVX NSCLC
[10] = system: HCT-116 colon
[11] = system: HCT-15 colon
[12] = system: HL-60(TB) leukemia
[13] = system: HOP-62 NSCLC
[14] = system: HOP-92 NSCLC
[15] = system: HS 578T breast
[16] = system: HT29 colon
[17] = system: IGROV1 ovarian
[18] = system: K-562 leukemia
[19] = system: KM12 colon
[20] = system: M14 melanoma
[21] = system: MALME-3M melanoma
[22] = system: MCF7 breast
[23] = system: MDA-MB-231 breast
[24] = system: MDA-MB-435
[25] = system: MDA-N
[26] = system: MOLT-4 leukemia
[27] = system: NCI-H226 lung
[28] = system: NCI-H23 lung
[29] = system: NCI-H460 lung
[30] = system: NCI-H522 lung
[31] = system: NCI/ADR-RES ovarian
[32] = system: OVCAR-3 ovarian
[33] = system: OVCAR-4 ovarian
[34] = system: OVCAR-5 ovarian
[35] = system: OVCAR-8 ovarian
[36] = system: PC-3 prostate
[37] = system: RPMI-8226 leukemia
[38] = system: RXF 393 renal
[39] = system: SF-268 CNS
[40] = system: SF-295 CNS
[41] = system: SF-539 CNS
[42] = system: SK-MEL-2 melanoma
[43] = system: SK-MEL-28 melanoma
[44] = system: SK-MEL-5 melanoma
[45] = system: SK-OV-3 ovarian
[46] = system: SN12C renal
[47] = system: SNB-19 CNS
[48] = system: SR leukemia
[49] = system: T-47D breast
[50] = system: TK-10 renal
[51] = system: U251 CNS
[52] = system: UACC-257 melanoma
[53] = system: UACC-62 melanoma
[54] = system: UO-31 renal
[55] = system: LOX IMVI melanoma
[56] = system: SNB-75 CNS
[57] = system: SW-620 colon

Cc1cc(S(=O)(=O)N/C(=C(\C#N)C(=O)c2ccccc2)[n+]2ccc(N(C)C)cc2)c([S-])cc1Cl
TGI [1]: > 100 µM
TGI [2]: > 100 µM
TGI [3]: > 100 µM
TGI [4]: > 100 µM
TGI [5]: > 100 µM
TGI [6]: > 100 µM
TGI [7]: > 100 µM
TGI [8]: > 100 µM
TGI [9]: > 100 µM
TGI [10]: > 100 µM
TGI [11]: > 100 µM
TGI [12]: > 100 µM
TGI [13]: > 100 µM
TGI [14]: 0.994 µM
TGI [15]: > 100 µM
TGI [16]: > 100 µM
TGI [17]: > 100 µM
TGI [18]: > 100 µM
TGI [19]: > 100 µM
TGI [20]: > 100 µM
TGI [21]: 94 µM
TGI [22]: > 100 µM
TGI [23]: > 100 µM
TGI [24]: > 100 µM
TGI [25]: > 100 µM
TGI [26]: > 100 µM
TGI [27]: > 100 µM
TGI [28]: > 100 µM
TGI [29]: > 100 µM
TGI [30]: > 100 µM
TGI [31]: > 100 µM
TGI [32]: > 100 µM
TGI [33]: > 100 µM
TGI [34]: > 100 µM
TGI [35]: > 100 µM
TGI [36]: > 100 µM
TGI [37]: > 100 µM
TGI [38]: > 100 µM
TGI [39]: > 100 µM
TGI [40]: > 100 µM
TGI [41]: > 100 µM
TGI [42]: > 100 µM
TGI [43]: > 100 µM
TGI [44]: > 100 µM
TGI [45]: > 100 µM
TGI [46]: > 100 µM
TGI [47]: > 100 µM
TGI [48]: > 100 µM
TGI [49]: > 100 µM
TGI [50]: > 100 µM
TGI [51]: > 100 µM
TGI [52]: > 100 µM
TGI [53]: > 100 µM
TGI [54]: > 100 µM

c1cncc(CNCCN2CCNCC2)c1
TGI [1]: > 100 µM
TGI [2]: > 100 µM
TGI [3]: > 100 µM
TGI [4]: > 100 µM
TGI [5]: > 100 µM
TGI [6]: > 100 µM
TGI [8]: > 100 µM
TGI [9]: > 100 µM
TGI [10]: > 100 µM
TGI [11]: > 100 µM
TGI [13]: > 100 µM
TGI [14]: > 100 µM
TGI [15]: > 100 µM
TGI [16]: > 100 µM
TGI [17]: > 100 µM
TGI [18]: > 100 µM
TGI [19]: > 100 µM
TGI [55]: > 100 µM
TGI [20]: > 100 µM
TGI [21]: > 100 µM
TGI [22]: > 100 µM
TGI [23]: > 100 µM
TGI [24]: > 100 µM
TGI [25]: > 100 µM
TGI [26]: > 100 µM
TGI [27]: > 100 µM
TGI [28]: > 100 µM
TGI [29]: > 100 µM
TGI [30]: > 100 µM
TGI [31]: > 100 µM
TGI [32]: > 100 µM
TGI [33]: > 100 µM
TGI [34]: > 100 µM
TGI [35]: > 100 µM
TGI [36]: > 100 µM
TGI [37]: > 100 µM
TGI [38]: > 100 µM
TGI [39]: > 100 µM
TGI [40]: > 100 µM
TGI [41]: > 100 µM
TGI [42]: > 100 µM
TGI [43]: > 100 µM
TGI [44]: > 100 µM
TGI [45]: > 100 µM
TGI [46]: > 100 µM
TGI [47]: > 100 µM
TGI [56]: > 100 µM
TGI [48]: > 100 µM
TGI [57]: > 100 µM
TGI [49]: > 100 µM
TGI [50]: > 100 µM
TGI [51]: > 100 µM
TGI [52]: > 100 µM
TGI [53]: > 100 µM
TGI [54]: > 100 µM
